Measured values: patent US20020137929A1, “1 - (3-heterocyclylphenyl) isothiourea, -isourea, -guanidine and -amidine herbicidal agents” (Intellectual Property Department, BASF Aktiengesellschaft, priority 1998, published 2002)

Key:
ZEAMX (Corn, Field) = assay: Preemergence herbicidal evaluation; type: in vivo, Zea mays; details: rated 4-5 weeks after treatment
How it was run: (§1)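 Visual 0-9 rating vs control (stand, vigor, malformation, size, chlorosis, overall appearance), scored 4-5 wk after spraying. Seeded soil cups were treated preemergence with compound in aqueous acetone, ~0.0156-0.500 kg/ha equivalent.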

ORYSAT (Rice, Tebonnet) [1] = assay: Preemergence herbicidal evaluation; type: in vivo, Oryza sativa, (L.) Tebonnet; details: rated 4-5 weeks after treatment
How it was run: as §1

[2] = tested on: SAGPY (Arrowhead (Pygmaea)); assay: Preemergence weed control under flooded paddy conditions; type: in vivo, Sagittaria pygmaea; details: rated 3-4 weeks after treatment
How it was run: (§2)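 Herbicidal effect is scored visually on a 0-9 scale against an untreated control, three to four weeks after compounds are pipetted into the flood water (1.5 to 3 cm deep) over seeds planted in silt loam at 0.5 cm depth. Rates: about 0.0313 to 0.500 kg/ha.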

[3] = tested on: CHEAL (Lambsquarters, Common); assay: Postemergence herbicidal evaluation; type: in vivo, Chenopodium album
How it was run: (§3)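 First, seedlings were raised for around two weeks. Next, test material in 50/50 acetone/water containing 0.5% TWEEN 20 was sprayed through a nozzle at 40 psi, equivalent to about 0.0156–0.500 kg/ha. Finally, after 4–5 weeks in the greenhouse, plants were rated 0–9.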

MOOVA (Monochoria) = assay: Preemergence weed control under flooded paddy conditions; type: in vivo, Monochoria vaginalis; details: rated 3-4 weeks after treatment
How it was run: as §2

GALAP (Galium) = assay: Preemergence herbicidal evaluation; type: in vivo, Galium aparine; details: rated 4-5 weeks after treatment
How it was run: as §1

CYPSE (Flatsedge) = assay: Postemergence weed control under flooded paddy conditions; type: in vivo, Cyperus serotinus; details: postemergence weeds, 3-4 weeks after treatment
How it was run: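 Herbicidal effect is judged by eye on a 0–9 scale versus control, 3–4 weeks after dosing. Dosing is into flood water kept 1.5–3 cm over the soil, at about 0.0313–0.500 kg/ha in aqueous/acetone 50/50 v/v, on 3–5 cm weeds and 1.5–2.5-leaf rice seedlings.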

CYPIR (Rice Flatsedge) = assay: Preemergence weed control under flooded paddy conditions; type: in vivo, Cyperus iria; details: rated 3-4 weeks after treatment
How it was run: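 Ratings on a 0-9 visual scale cover stand, vigor, malformation, size, chlorosis and overall appearance relative to a control, taken three to four weeks post-treatment. Application was into flood water over freshly sown silt loam at roughly 0.0313 to 0.500 kg/ha.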

CASOB (Sicklepod) = assay: Postemergence herbicidal evaluation; type: in vivo, Cassia obtusifolia
How it was run: as §3

SETVI (Foxtail, Green) = assay: Preemergence herbicidal evaluation; type: in vivo, Setaria viridis; details: rated 4-5 weeks after treatment
How it was run: as §1

[4] = tested on: TRZAWR (Wheat, Winter, cv Riband); assay: Preemergence herbicidal evaluation; type: in vivo, Triticum aestivum; details: rated 4-5 weeks after treatment
How it was run: as §1

ECHCG (Barnyardgrass) = assay: Postemergence herbicidal evaluation; type: in vivo, Echinochloa crus-galli
How it was run: as §3

[5] = tested on: GLXMAW (Soybean, Williams); assay: Preemergence herbicidal evaluation; type: in vivo, Glycine max, (L.) Merr. cv Williams; details: rated 4-5 weeks after treatment
How it was run: as §1

ORYSAT (Rice, Tebonnet) [6] = assay: Postemergence herbicidal evaluation; type: in vivo, Oryza sativa, (L.) Tebonnet
How it was run: as §3

In the case of `O=C(O)CC1SC(=Nc2cc(N3C(=O)C4=C(CCCC4)C3=O)c(F)cc2Cl)N(CC(=O)O)C1=O` (centres unmarked) [Compound 48, 2-{[2-Chloro-5-(1-cyclohexene-1,2-dicarboximido)-4-fluorophenyl]imino}-4-oxo-3,5-thiazolidinediacetic acid], the “Preemergence herbicidal rating ZEAMX” value (ZEAMX (Corn, Field); rate 0.0156 kg/ha) is reported as 0.0, the “Preemergence herbicidal rating ZEAMX” value (ZEAMX (Corn, Field); rate 0.0313 kg/ha) is reported as 0.0 and the “Preemergence herbicidal rating ZEAMX” value (ZEAMX (Corn, Field); rate 0.0625 kg/ha) is reported as 0.0. For the same molecule, the “Preemergence herbicidal rating ZEAMX” value (ZEAMX (Corn, Field); rate 0.1250 kg/ha) was 0.0, the “Preemergence herbicidal rating ZEAMX” value (ZEAMX (Corn, Field); rate 0.2500 kg/ha) was 2.0 and the “Preemergence herbicidal rating ORYSAT” value (ORYSAT (Rice, Tebonnet) [1]; rate 0.0156 kg/ha) was 0.0. For the same molecule, the “Preemergence herbicidal rating ORYSAT” value (ORYSAT (Rice, Tebonnet) [1]; rate 0.0313 kg/ha) was 0.0, the “Preemergence herbicidal rating ORYSAT” value (ORYSAT (Rice, Tebonnet) [1]; rate 0.0625 kg/ha) was 0.0 and the “Preemergence herbicidal rating ORYSAT” value (ORYSAT (Rice, Tebonnet) [1]; rate 0.1250 kg/ha) was 0.0. The “Preemergence herbicidal rating ORYSAT” value (ORYSAT (Rice, Tebonnet) [1]; rate 0.2500 kg/ha) was 3.0, the “Herbicidal rating SAGPY” value ([2]; 0.1250 kg/ha) was 3.0 and the “Herbicidal rating SAGPY” value ([2]; 0.2500 kg/ha) was 6.0. For the same molecule, the “Postemergence herbicidal rating CHEAL” value ([3]; Rate 0.0156 kg/ha) was 3.0, the “Postemergence herbicidal rating CHEAL” value ([3]; Rate 0.0313 kg/ha) was 4.0 and the “Postemergence herbicidal rating CHEAL” value ([3]; Rate 0.0625 kg/ha) was 4.0. The “Herbicidal rating MOOVA” value (MOOVA (Monochoria); 0.1250 kg/ha) was 3.0, the “Herbicidal rating MOOVA” value (MOOVA (Monochoria); 0.2500 kg/ha) was 6.0 and the “Preemergence herbicidal rating GALAP” value (GALAP (Galium); rate 0.0156 kg/ha) was 0.0. The “Preemergence herbicidal rating GALAP” value (GALAP (Galium); rate 0.0313 kg/ha) was 0.0, the “Preemergence herbicidal rating GALAP” value (GALAP (Galium); rate 0.0625 kg/ha) was 0.0 and the “Preemergence herbicidal rating GALAP” value (GALAP (Galium); rate 0.1250 kg/ha) was 0.0. For the same molecule, the “Preemergence herbicidal rating GALAP” value (GALAP (Galium); rate 0.2500 kg/ha) was 0.0, the “Herbicidal rating CYPSE” value (CYPSE (Flatsedge); rate 0.1250 kg/ha) was 0.0 and the “Herbicidal rating CYPSE” value (CYPSE (Flatsedge); rate 0.2500 kg/ha) was 0.0. For the same molecule, the “Herbicidal rating CYPIR” value (CYPIR (Rice Flatsedge); 0.1250 kg/ha) was 2.0, the “Herbicidal rating CYPIR” value (CYPIR (Rice Flatsedge); 0.2500 kg/ha) was 5.0 and the “Postemergence herbicidal rating CASOB” value (CASOB (Sicklepod); Rate 0.0156 kg/ha) was 0.0. The “Postemergence herbicidal rating CASOB” value (CASOB (Sicklepod); Rate 0.0313 kg/ha) was 2.0, the “Postemergence herbicidal rating CASOB” value (CASOB (Sicklepod); Rate 0.0625 kg/ha) was 3.0 and the “Preemergence herbicidal rating SETVI” value (SETVI (Foxtail, Green); rate 0.0156 kg/ha) was 0.0. For the same molecule, the “Preemergence herbicidal rating SETVI” value (SETVI (Foxtail, Green); rate 0.0313 kg/ha) was 0.0, the “Preemergence herbicidal rating SETVI” value (SETVI (Foxtail, Green); rate 0.0625 kg/ha) was 0.0 and the “Preemergence herbicidal rating SETVI” value (SETVI (Foxtail, Green); rate 0.1250 kg/ha) was 0.0. For the same molecule, the “Preemergence herbicidal rating SETVI” value (SETVI (Foxtail, Green); rate 0.2500 kg/ha) was 0.0, the “Preemergence herbicidal rating TRZAWR” value ([4]; rate 0.0156 kg/ha) was 0.0 and the “Preemergence herbicidal rating TRZAWR” value ([4]; rate 0.0313 kg/ha) was 0.0. For the same molecule, the “Preemergence herbicidal rating TRZAWR” value ([4]; rate 0.0625 kg/ha) was 0.0, the “Preemergence herbicidal rating TRZAWR” value ([4]; rate 0.1250 kg/ha) was 0.0 and the “Preemergence herbicidal rating TRZAWR” value ([4]; rate 0.2500 kg/ha) was 2.0. For the same molecule, the “Postemergence herbicidal rating ECHCG” value (ECHCG (Barnyardgrass); Rate 0.0156 kg/ha) was 0.0, the “Postemergence herbicidal rating ECHCG” value (ECHCG (Barnyardgrass); Rate 0.0313 kg/ha) was 2.0 and the “Postemergence herbicidal rating ECHCG” value (ECHCG (Barnyardgrass); Rate 0.0625 kg/ha) was 2.0. For the same molecule, the “Preemergence herbicidal rating GLXMAW” value ([5]; rate 0.0156 kg/ha) was 0.0, the “Preemergence herbicidal rating GLXMAW” value ([5]; rate 0.0313 kg/ha) was 0.0 and the “Preemergence herbicidal rating GLXMAW” value ([5]; rate 0.0625 kg/ha) was 0.0. The “Preemergence herbicidal rating GLXMAW” value ([5]; rate 0.1250 kg/ha) was 0.0, the “Preemergence herbicidal rating GLXMAW” value ([5]; rate 0.2500 kg/ha) was 2.0 and the “Postemergence herbicidal rating ORYSAT” value (ORYSAT (Rice, Tebonnet) [6]; Rate 0.0156 kg/ha) was 0.5. For the same molecule, the “Postemergence herbicidal rating ORYSAT” value (ORYSAT (Rice, Tebonnet) [6]; Rate 0.0313 kg/ha) was 0.5 and the “Postemergence herbicidal rating ORYSAT” value (ORYSAT (Rice, Tebonnet) [6]; Rate 0.0625 kg/ha) was 2.0.
